Experiments:
p38α kinase = p38α kinase (Homo sapiens (Human), UniProt Q16539); assay: Inhibition of p38α kinase activity (p38α kinase assay kit, ADP-Glo); assay type: biochemical; settings: ATP 50 μM; read-out: IC50 of inhibition effect on p38α kinase activity
Method: The inhibition of p38α kinase activity in vitro was determined by the following method.
The inhibition effect of the compounds of the present invention on p38a kinase activity was determined by the following experimental method:
p38α kinase assay kit (V9591, Promega) was used to assay enzyme activity. 2 μl of enzyme solution (the final concentration of enzyme in the reaction system was 0.5 ng/μL) formulated with reaction buffer (40 mM Tris pH 7.5, 20 mM MgCl2, 0.1 mg/ml BSA), 1 μl of a 3-fold gradient dilution of the compounds dissolved in 5% DMSO, and 2 μl of a mixed solution of ATP and p38 substrate peptide (the final concentration of ATP was 50 μM, and the final concentration of substrate was 0.2 μg/μL) were added successively to a 384-well plate (4514, Corning). After reaction at 27° C. for 2.5 hours, 5 μl of ADP-Glo solution in the kit was added to each well, then the plate was placed at 27° C. for 40 minutes. 10 μl of kinase assay reagent was then added to each well, then the plate was placed at 27° C. for 30 minutes. The chemiluminescence signal values were measured with a Victor 3 (PerkinElmer) multi-function microplate reader. The IC50 values of the compounds on enzyme inhibition were calculated using Graphpad prism software based on each concentration of the compound and the corresponding signal value thereof.

[1] = molecular target: recombinant human VEGFR2 enzyme (Homo sapiens (Human), UniProt P35968); assay: Inhibition of VEGFR2 kinase activity (Z'-LYTE Kinase Assay Kit); assay type: biochemical; settings: ATP 50 μM; read-out: IC50 of inhibition effect on VEGFR2 kinase activity
Chain of recombinant human VEGFR2 enzyme (P35968 20-1356): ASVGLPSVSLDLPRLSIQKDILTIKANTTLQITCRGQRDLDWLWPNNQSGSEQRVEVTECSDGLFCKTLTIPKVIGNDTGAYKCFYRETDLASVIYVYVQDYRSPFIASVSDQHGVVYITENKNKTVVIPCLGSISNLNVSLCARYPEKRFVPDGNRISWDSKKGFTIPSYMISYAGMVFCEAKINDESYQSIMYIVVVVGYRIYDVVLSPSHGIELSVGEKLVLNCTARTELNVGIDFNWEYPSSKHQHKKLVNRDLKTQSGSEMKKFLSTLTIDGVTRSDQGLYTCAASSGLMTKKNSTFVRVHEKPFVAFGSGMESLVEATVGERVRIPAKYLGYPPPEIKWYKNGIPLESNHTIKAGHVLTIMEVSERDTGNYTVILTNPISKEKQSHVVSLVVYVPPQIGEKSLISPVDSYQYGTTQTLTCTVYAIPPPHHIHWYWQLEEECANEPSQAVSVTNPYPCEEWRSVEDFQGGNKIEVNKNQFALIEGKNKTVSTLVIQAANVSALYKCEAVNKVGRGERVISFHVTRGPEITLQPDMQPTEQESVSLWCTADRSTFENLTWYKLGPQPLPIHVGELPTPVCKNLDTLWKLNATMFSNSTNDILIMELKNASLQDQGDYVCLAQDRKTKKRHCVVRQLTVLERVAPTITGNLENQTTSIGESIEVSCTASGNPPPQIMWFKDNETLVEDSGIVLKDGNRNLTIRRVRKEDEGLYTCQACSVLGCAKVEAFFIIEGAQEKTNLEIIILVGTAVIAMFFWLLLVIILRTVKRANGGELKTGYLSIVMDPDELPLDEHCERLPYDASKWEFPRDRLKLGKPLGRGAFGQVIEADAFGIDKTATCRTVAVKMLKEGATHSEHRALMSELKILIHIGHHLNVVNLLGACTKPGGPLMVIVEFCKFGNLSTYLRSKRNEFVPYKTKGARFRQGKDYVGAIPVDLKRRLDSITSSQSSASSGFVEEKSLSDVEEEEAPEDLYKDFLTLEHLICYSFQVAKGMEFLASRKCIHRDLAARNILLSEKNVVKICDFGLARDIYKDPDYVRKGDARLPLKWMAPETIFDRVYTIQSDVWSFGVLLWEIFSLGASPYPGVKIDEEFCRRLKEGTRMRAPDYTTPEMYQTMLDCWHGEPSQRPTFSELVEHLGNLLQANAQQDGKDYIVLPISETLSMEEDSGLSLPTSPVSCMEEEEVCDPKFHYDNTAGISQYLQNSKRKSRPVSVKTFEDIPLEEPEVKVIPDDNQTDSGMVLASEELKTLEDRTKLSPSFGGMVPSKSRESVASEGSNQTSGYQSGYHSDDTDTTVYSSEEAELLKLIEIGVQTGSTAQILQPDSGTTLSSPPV
Method: The inhibition effect of VEGFR2 kinase activity in vitro was determined by the following method.
The inhibition effect of the compounds of the present invention on VEGFR2 kinase activity was determined by the following experimental method:
After reaction at 25° C. for 2 hours, 5 μL of detection reagent was added to each well. […] The IC50 values of the compounds for enzyme inhibition were calculated using Graphpad prism software based on each concentration of the compound and the corresponding signal value thereof.

[2] = tested on: Smad signaling pathway of TGFβRI; assay: Inhibition of Smad signaling pathway of TGFβRI (3TP-lux luciferase reporter in HepG2 cell); assay type: cell-based; settings: Homo sapiens; HepG2 cell, 3TP-lux plasmid, 18 hours; read-out: IC50 on the inhibition of Smad signaling pathway of TGFβRI
TGFβRI kinase ALK5 = TGFβRI kinase ALK5 (Homo sapiens (Human), UniProt P36897); assay: Inhibition of TGFβRI kinase ALK5 activity (TGFβRI kinase assay kit, ADP-Glo); assay type: biochemical; settings: ATP 50 μM; read-out: IC50 of inhibition effect on TGFβRI kinase ALK5 activity
Chain of TGFβRI kinase ALK5 (P36897 34-503): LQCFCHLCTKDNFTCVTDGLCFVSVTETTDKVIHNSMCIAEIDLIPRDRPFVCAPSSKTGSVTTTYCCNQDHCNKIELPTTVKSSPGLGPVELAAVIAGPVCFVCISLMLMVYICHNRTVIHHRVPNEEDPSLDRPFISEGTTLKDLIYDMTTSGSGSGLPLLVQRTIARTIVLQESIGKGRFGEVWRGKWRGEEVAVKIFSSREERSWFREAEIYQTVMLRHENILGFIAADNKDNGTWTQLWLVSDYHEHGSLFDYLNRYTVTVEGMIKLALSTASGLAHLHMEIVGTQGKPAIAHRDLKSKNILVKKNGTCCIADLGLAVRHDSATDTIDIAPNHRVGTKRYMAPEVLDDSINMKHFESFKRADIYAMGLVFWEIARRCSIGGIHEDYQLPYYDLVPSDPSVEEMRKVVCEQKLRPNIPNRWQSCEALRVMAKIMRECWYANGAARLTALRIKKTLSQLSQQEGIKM
Summary of the method: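 Kinase reaction: 2 ng/μL enzyme in Tris pH 7.5, MgCl2, BSA buffer with 50 μM ATP and 0.2 μg/μL substrate peptide, 2.5 h at 27 °C. ADP formation read by ADP-Glo luminescence over 3-fold compound dilutions; IC50 calculated from signal versus concentration.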

NIH3T3 cell = assay: Inhibition of NIH3T3 cell proliferation (CellTiter-Glo); assay type: cell-based; settings: Mus musculus, 72 hours, 0.5% FBS
Method: The inhibition effect of the compounds of the present invention on NIH3T3 cell proliferation was determined by the following in vitro test.
The inhibition effect of the compounds of the present invention on NIH3T3 cell proliferation was determined by the following experimental method:
On a 96-well white plate with transparent bottom (3903, Corning), 100 μL of NIH3T3 cell (GNM6, Cell Bank of Typical Culture Collection Committee of Chinese Academy of Sciences) was seeded in a DMEM medium containing 10% FBS in each well. The seeding density is 2000 cells/well. The cells were incubated overnight at 37° C., 5% CO2. After overnight incubation, each well was replaced with 90 μL of DMEM medium containing 0.5% FBS. 10 μl of a 3-fold gradient dilution of the compounds with DMEM medium containing 0.5% FBS was then added, and the plate was incubated for 72 hours in a cell incubator at 37° C., 5% CO2. Finally, 50 μL of CellTiter-Glo (G7573, Promega) was added to each well. After incubation for 10 minutes at room temperature, the chemiluminescence signal values were measured with a Victor 3 microplate reader (PerkinElmer). The IC50 values of the compounds were calculated using Graphpad Prism software based on each concentration of the compound and the corresponding signal value thereof.

Chain of p38α kinase (Q16539 whole entry): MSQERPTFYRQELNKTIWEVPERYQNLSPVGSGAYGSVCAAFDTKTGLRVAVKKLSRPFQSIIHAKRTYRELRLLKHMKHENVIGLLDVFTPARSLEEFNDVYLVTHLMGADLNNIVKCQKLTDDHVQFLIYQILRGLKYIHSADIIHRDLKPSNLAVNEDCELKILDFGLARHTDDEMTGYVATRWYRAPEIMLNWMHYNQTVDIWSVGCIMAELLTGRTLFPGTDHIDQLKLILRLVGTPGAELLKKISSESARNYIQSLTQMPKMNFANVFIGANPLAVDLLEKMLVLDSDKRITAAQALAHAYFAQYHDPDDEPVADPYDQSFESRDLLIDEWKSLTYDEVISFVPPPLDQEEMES

Row | IC50 (p38α kinase) | IC50 [1] | IC50 [2] | IC50 (TGFβRI kinase ALK5) | Structure (SMILES) | IC50 (NIH3T3 cell)
1 | 638 nM | 4060 nM | 86 nM | 29 nM | Cc1cccc(-c2nc3n(c2-c2ccnc(-c4ccc(C(N)=O)cc4)c2)C2CCC3C2)n1 (stereo not shown) [Example 4, 4-(4-(2-(6-Methylpyridin-2-yl)-5,6,7,8-tetrahydro-5,8-methanoimidazo[1,2-a]pyridin-3-yl)pyridin-2-yl)benzamide] | 
2 | 598 nM | 1010 nM | 18 nM | 21 nM | Cc1cccc(-c2nn3c(c2-c2ccc4nccc(C(N)=O)c4c2)C2CCC3CC2)n1 [Example 36, 6-(2-(6-Methylpyridin-2-yl)-4,5,6,7-tetrahydro-4,7-ethanopyrazolo[1,5-a]pyridin-3-yl)quinoline-4-carboxamide] | 
3 | 1360 nM | 2080 nM | 18 nM | 10 nM | Cn1cc(-c2cc(-c3c(-c4ccc(F)cn4)nc4n3[C@H]3CC[C@@H]4C3)ccn2)cn1 [Example 40-1, (5S,8R)-2-(5-Fluoropyridin-2-yl)-3-(2-(1-methyl-1H-pyrazol-4-yl)pyridin-4-yl)-5,6,7,8-tetrahydro-5,8-methanoimidazo[1,2-a]pyridine] | 42 nM
